# According to patent US9889184B2 (priority 2008, dated 2018):
# Columns and labels:
# [1] = test system: Fov hyphae; test: Membrane permeabilization of Fov hyphae, SYTOX green uptake; type: cell-based, Fusarium oxysporum f. sp. vasinfectum
# Procedure: Fov hyphae were grown in half-strength PDB (10 mL in a 50 mL tube) from a starting concentration of 5×10^4 spores/mL for 18 h at 25° C. with constant shaking. Samples (1 mL) were then removed and NaD1 (final concentration 2 μM), NaD1R&A (final concentration 2 μM) or an equivalent volume of water was added before incubation for 2 h at RT with gentle agitation. SYTOX® green (Invitrogen-Molecular Probes, Eugene, Oreg.) was added to a final concentration of 0.5 μM and the hyphae were allowed to stand for 10 min. Hyphae (20 μL) were then transferred to microscope slides (SuperFrost (Registered) Plus, Menzel-Glaser) and covered with glass coverslips for visualization of SYTOX® green uptake using an Olympus BX51 fluorescence microscope. SYTOX® green fluorescence was detected using an MWIB filter (excitation wavelength 460-490 nm). Images were captured using a SPOT RT 3CCD digital camera (Diagnostic Instruments) and processed using Adobe Photoshop. SYTOX® green uptake was quantitated by measuring fluorescence of hyphae in microtitre trays using a fluorimeter (SpectraMax M2; Molecular Devices) with excitation and emission wavelengths of 488 nm and 538 nm, respectively.
# The effect of temperature on membrane permeabilization of Fov hyphae by NaD1 was monitored as described, except hyphae were pre-equilibrated for 60 min at either 10°, 4° or 0° C. before addition of NaD1 and all subsequent steps were carried out at these temperatures.
# The kinetics of membrane permeabilization by NaD1 were studied. Fov hyphae were grown in half-strength PDB from a starting concentration of 5×10^4 spores/mL for 18 h at 25° C. Hyphae (80 μL) were then transferred to 96-well microtitre plates and incubated with SYTOX® green (0.5 μM) for 10 min prior to the addition of 20 μL of peptide solution to give final protein concentrations of 0.2, 0.4, 0.8, 1.6, 3.12, 6.25, 12.5, 25, 50 or 100 μM. Fluorescence readings (Ex; 488 nm, Em; 538 nm) were then taken every 2 min for 3 h using a fluorimeter (SpectraMax M2).
# [2] = test system: Fov hyphae; test: Uptake of FITC-labeled dextrans into NaD1-treated hyphae; type: cell-based, Fusarium oxysporum f. sp. vasinfectum
# Procedure: The uptake of FITC-labeled dextran following NaD1 treatment of fungal hyphae was also studied. Fov hyphae were grown as described above and incubated with NaD1 (final concentration 0.1, 2, 10 or 50 μM) or an equivalent volume of water for 2 h at RT with gentle agitation. Hyphae were washed twice for 10 min with half-strength PDB to remove excess NaD1 before FITC dextrans of either 4 kDa (FD-4, Sigma-Aldrich) or 10 kDa (FD-10, Sigma-Aldrich) were added to a final concentration of 1 μM. Hyphae were incubated for a further 30 min at RT and then washed twice with half strength PDB to remove excess dextrans. Fluorescence microscopy was used to visualize hyphae as described for SYTOX® green. A second assay was performed under the same conditions except the dextrans were added at the same time as NaD1.
# [3] = test system: Fov hyphae; test: Detection of reactive oxygen species (DHR123 oxidation); type: cell-based, Fusarium oxysporum f. sp. vasinfectum
# Procedure: Fov hyphae were grown as described herein and incubated with 5 μg/mL dihydrorhodamine 123 (Sigma-Aldrich) for 2 h followed by extensive washing with growth medium. […] Fluorescence was then measured on a fluorimeter with excitation and emission wavelengths of 488 nm and 538 nm respectively or visualized by fluorescence microscopy. The experiment was repeated either in the presence of ascorbic acid (10 mM) or 2,2,6,6-tetramethylpiperidine-N-oxyl (TEMPO, 3 mM).
# [4] = test system: Fusarium oxysporum f. sp. vasinfectum (Fov); test: Growth inhibition of Fov by NaD1 (microtitre OD595); type: cell-based
# Procedure: Lyophilized NaD1 (500 μg) was dissolved in 400 μL of stock buffer (200 mM Tris-HCl pH 8.0, 2 mM EDTA, 6 M guanidine-HCl, 0.02% [v/v] Tween-20). Reduction buffer (stock buffer with 15 mM dithiothreitol [DTT]) was added (44 μL) followed by a 4.5 h incubation at 40° C. The reaction mixture was cooled to RT before iodoacetic acid (0.5 M in 1 M NaOH, 55 μL) was added and the incubation continued in the dark for 30 min at RT. A Nanosep omega (Registered) spin column (3K molecular weight cut off, PALL Life Sciences) was used to remove salts, DTT and iodoacetic acid and the protein concentration was determined using the BCA protein assay (Pierce). The effect of reduced and alkylated NaD1 (NaD1R&A) on the growth of Fusarium oxysporum (Fov) was measured as described herein.
# Antifungal activity against Fusarium oxysporum f. sp. vasinfectum (Fov, Australian isolate VCG01111 isolated from cotton; from Wayne O'Neill, Farming Systems Institute, DPI, Queensland, Australia), Thielaviopsis basicola (gift from David Nehl, NSW DPI, Narrabri, Australia), Verticillium dahliae (from Helen McFadden, CSIRO Plant Industry, Black Mountain, Australia), Leptosphaeria maculans (from Barbara Howlett, University of Melbourne, Victoria, Australia) and Aspergillus nidulans (from Michael Hynes, University of Melbourne) was assessed essentially as described in Broekaert et al, 1990. Spores were isolated from sporulating cultures growing in either half-strength potato dextrose broth (PDB) (Fov and T. basicola), Czapeck-Dox Broth (V. dahliae) (Difco Laboratories) or 10% (v/v) clarified V8 medium (L. maculans and A. nidulans) by filtration through sterile muslin. Spore concentrations were determined using a hemocytometer and adjusted to 5×10^4 spores/mL in the appropriate growth medium. Spore suspensions (80 μL) were added to the wells of sterile 96-well flat-bottomed microtitre plates along with 20 μL of filter-sterilized (0.22 μm syringe filter; Millipore) NaD1, or water to give final protein concentrations of 0-10 μM. The plates were shaken briefly and placed in the dark at 25° C. without shaking until the optical density at 595 nm of the water control reached approximately 0.2 (24-72 h depending on growth rate). Hyphal growth was estimated by measuring the optical density at 595 nm using a microtitre plate reader (SpectraMax Pro M2; Molecular Devices). Each test was performed in quadruplicate.
# [5] = test system: Fov infection; details: transgenic cotton expressing NaD1 vs untransformed parent variety, field trials; cited from earlier work
substance,measurement,setting,value
NaD1: plant defensin isolated from floral tissue of Nicotiana alata (SEQ ID NO:12) (RECKTESNTFPGICITKPPCRKACISEKFTDGHCSKILRRCLCTKPC; Nicotiana alata (NaD1)),NaD1-induced permeabilization (SYTOX green uptake),"[1]; 0° C., compared with 4° C.",reduced even further
same,permeabilization of Fov hyphal membranes (SYTOX green),"[1]; 0.1, 2 or 10 μM NaD1 or 10 μM NaD1R&A",permeabilized hyphae
same,NaD1-induced permeabilization (SYTOX green uptake),[1]; 4° C.,only a small degree of permeabilization
same,NaD1-induced permeabilization (SYTOX green uptake),"[1]; 10° C., less than at 25° C.",substantial uptake of SYTOX® green
same,NaD1 concentration up to which Vmax increased linearly; above it rate unchanged (saturable),[1]; Vmax = maximum rate of fluorescence increase,6.25 µM
same,NaD1 concentration up to which the rate of permeabilization increased progressively,[1]; above it (up to 50 μM) very little difference in kinetics,3 µM
same,lag time before permeabilization,[1]; all NaD1 concentrations,around 20 min
same,time after which fluorescence began to plateau,[1]; all NaD1 concentrations,90 min
same,SYTOX green uptake,[1]; lowest concentration of NaD1 (0.1 μM),a small amount of SYTOX® green uptake occurred
same,entry of 10 kDa FITC-dextran (23 Å) into NaD1-treated hyphae,[2]; even at very high concentrations of NaD1,excluded
same,entry of 4 kDa FITC-dextran (14 Å) into NaD1-treated hyphae,[2]; same NaD1 concentration that led to SYTOX green uptake,entered hyphae
same,"ROS production, DHR123 fluorescence","[3]; NaD1 0.1, 2 and 10 μM or 10 μM NaD1R&A",concentration-dependent increase in fluorescence
same,DHR123 oxidation by NaD1 in the presence of ROS scavengers,[3]; ascorbic acid or TEMPO present,did not alter the level of fluorescence
same,growth retarded,"[4]; 1 μM NaD1, Fov",50%
same,growth inhibited,"[4]; 5 μM NaD1, Fov",more than 80%
same,growth inhibition of Fov by NaD1 with ROS scavenger,[4]; 10 mM ascorbic acid,nor did the presence of 10 mM ascorbic acid affect growth inhibition
same,IC50,[4]; Fusarium oxysporum f. sp. vasinfectum,1000 nM
same,growth inhibition of Fov,[4]; NaD1 0.1 μM,no growth inhibition was observed
same,growth inhibition of Fov,[4]; NaD1 concentration used for microscopy (10 μM),> 90%
same,protection from the pathological effects of Fov infection,[5],significantly protected
